Measurements reported in patent US20240208898A1, “ENAMINE N-OXIDES: SYNTHESIS AND APPLICATION TO HYPOXIA-RESPONSIVE PRODRUGS AND IMAGING AGENTS” (DANA-FARBER CANCER INSTITUTE, INC., priority 2021, published 2024).
Entries after “also recorded” stand apart in the source; their conditions may differ.

System: BxPC-3 xenografts
Experiment: Immunofluorescence tissue staining of tumor slices
Type: in vivo, mice
Procedure: All animal experiments were performed according to procedures and protocols approved by the Dana-Farber Cancer Institute Institutional Animal Care and Use Committee. Bx-PC3 cells were grown to confluency in antibiotic-free RPMI supplemented with 10% FBS, trypsinized, and washed three times with ice cold PBS (50 mL). Cells were resuspended in PBS at a concentration of 1.0×10^7 cells per 100 μL. 8-week old, female, homozygous NU/J mice (Jackson Laboratory) were subcutaneously injected with 1.0×10^7 Bx-PC3 cells over the right hind flank under isoflurane anesthesia. Experiments were performed when tumors reached 1000 mm^3 in size.
Mice were intraperitoneally injected with a 200 μL bolus of 25.8 mM pimonidazole and enamine N-oxide probe in 0.9% saline. Two min prior to sacrifice, mice were intravenously injected with 15 mg/kg Hoechst 33342 in 100 μL of PBS. After 1 hour, mice were sacrificed by cervical dislocation under isoflurane anesthesia. Tumors were resected and fixed in 4% paraformaldehyde in PBS for 24 hours at 4° C. with shaking. Tumors were then stored in 70% ethanol/water and submitted to the Rodent Histopathology Core at the Dana-Farber/Harvard Cancer Center for paraffin sectioning and H&E staining on glass slides. Paraffin embedded slices on glass slides were first rehydrated by successively immersing in xylenes twice for 10 minutes, 100% ethanol twice for 10 minutes, 95% ethanol/water once for 5 minutes, 70% ethanol/water for 5 minutes, 50% ethanol/water for 5 minutes, water three times for 20 seconds, and ice cold PBS+0.3% Triton X-100 once for 10 minutes. For slices to be stained by HIF1α and CD31, slides were then incubated at 90° C. in 10 mM citrate, pH 6.0 for 15 minutes. After 15 minutes, the solution was removed from heat and allowed to cool to room temperature. […] Slices were then imaged using a widefield fluorescence inverted microscope (Nikon Ti Eclipse) at the Dana-Farber Confocal and Light Microscopy Core according to the settings listed in the “General biological instrumentation” section.

Row | Compound | localization in tumor tissue slices vs CD31 endothelial cell marker (intraperitoneal, CD31, DAPI) | localization in tumor tissue slices vs hypoxia markers (intraperitoneal, markers GLUT1, HIF1α, CAIX, pimonidazole) | co-localization with pimonidazole in tumor tissue slices (tumor of mouse imaged by NIR probe, CuAAC fluorescent labeling)
1 | C#CCCCCC(F)/C=C/[N+]([O-])(CC)CC (stereo not drawn) [probe 39, (E)-N,N-diethyl-3-fluoronon-1-en-8-yn-1-amine oxide] | vasculature is primarily localized in regions distal to regions that are labeled well by enamine N-oxide 39 staining | strong correlation; also recorded: co-localized with the GLUT1 and pimonidazole hypoxia markers | –
2 | C#CCN(CCCCCC(F)/C=C/[N+]([O-])(CC)CC)C(=O)c1ccc(C2=c3cc4c(cc3[Si](C)(C)c3cc5c(cc32)CCN5C)=[N+](C)CC4)c(C)c1 (stereo not drawn) [probe 42, Si700-enamine N-oxide] | – | – | robust co-localization
